Source: the supplement of paper PMC10307832

Experiments:
Experiment in all cases: relative viability (nuclei count vs DMSO), 5 days (fraction); higher = more cells survive
[1] = compound: Cc1cc(Nc2cc(N3CCN(C)CC3)nc(Sc3ccc(NC(=O)C4CC4)cc3)n2)n[nH]1 [Tozasertib] + O=C(c1cc(Cc2n[nH]c(=O)c3ccccc23)ccc1F)N1CCN(C(=O)C2CC2)CC1 [Olaparib] (partner 8 µM)
Method in brief: (§1)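 Lung cancer cell lines in 1536-well plates were dosed by pin tool the day after seeding, either with one drug alone or with a fixed anchor-drug dose plus five library-drug doses (not always all listed) in √10 steps. After 5 days, cells were fixed and their nuclei stained in one step (final 0.05% Triton X-100, 1% formaldehyde, 1 ug/ml Hoechst), then counted on 4× images. Relative viability is the nuclei count in treated wells divided by that in vehicle wells. Values are medians of duplicate plates.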

[2] = compound: Cc1cc(Nc2cc(N3CCN(C)CC3)nc(Sc3ccc(NC(=O)C4CC4)cc3)n2)n[nH]1 [Tozasertib] + CC(=O)Nc1cccc(-n2c(=O)n(C3CC3)c(=O)c3c(Nc4ccc(I)cc4F)n(C)c(=O)c(C)c32)c1 [Trametinib] (partner 0.02 µM)
Method in brief: as §1

[3] = compound: Cc1cc(Nc2cc(N3CCN(C)CC3)nc(Sc3ccc(NC(=O)C4CC4)cc3)n2)n[nH]1 [Tozasertib] + CS(=O)(=O)CCNCc1ccc(-c2ccc3ncnc(Nc4ccc(OCc5cccc(F)c5)c(Cl)c4)c3c2)o1 [Lapatinib] (partner 2 µM)
Method in brief: as §1

[4] = compound: Cc1cc(Nc2cc(N3CCN(C)CC3)nc(Sc3ccc(NC(=O)C4CC4)cc3)n2)n[nH]1 [Tozasertib] + CC1(C)CCC(c2ccc(Cl)cc2)=C(CN2CCN(c3ccc(C(=O)NS(=O)(=O)c4ccc(N[C@H](CCN5CCOCC5)CSc5ccccc5)c(S(=O)(=O)C(F)(F)F)c4)cc3)CC2)C1 [Navitoclax] (partner 0.5 µM)
Method in brief: as §1

[5] = compound: Cc1cc(Nc2cc(N3CCN(C)CC3)nc(Sc3ccc(NC(=O)C4CC4)cc3)n2)n[nH]1 [Tozasertib] + CCNC(=O)c1noc(-c2cc(C(C)C)c(O)cc2O)c1-c1ccc(CN2CCOCC2)cc1 [Luminespib] (partner 0.01 µM)
Method in brief: as §1

Cell Line	relative viability ([1]; first compound 0.004 µM)	relative viability ([1]; first compound 0.01265 µM)	relative viability ([1]; first compound 0.04 µM)	relative viability ([1]; first compound 0.1265 µM)	relative viability ([2]; first compound 0.01265 µM)	relative viability ([2]; first compound 0.04 µM)	relative viability ([2]; first compound 0.1265 µM)	relative viability ([3]; first compound 0.004 µM)	relative viability ([3]; first compound 0.1265 µM)	relative viability ([4]; first compound 0.004 µM)	relative viability ([4]; first compound 0.01265 µM)	relative viability ([4]; first compound 0.04 µM)	relative viability ([4]; first compound 0.1265 µM)	relative viability ([5]; first compound 0.004 µM)	relative viability ([5]; first compound 0.01265 µM)	relative viability ([5]; first compound 0.04 µM)	relative viability ([5]; first compound 0.1265 µM)	relative viability ([2]; first compound 0.004 µM)	relative viability ([3]; first compound 0.01265 µM)	relative viability ([3]; first compound 0.04 µM)
NCI-H1734	0.734	0.577	0.66	0.374	0.793	0.678	0.403	1.06	0.497	0.851	0.761	0.834	0.504	0.223	0.184	0.2	0.167	–	–	–
201T	0.846	0.838	0.849	0.814	0.705	0.759	0.71	1	0.884	1.16	1.22	1.23	1.16	1.12	1.06	–	1.11	0.707	0.981	1.05
LK-2	0.753	0.715	0.77	0.326	0.646	0.739	0.353	1.01	0.219	0.878	0.736	0.981	0.392	0.204	0.195	0.166	0.172	0.859	0.869	1.01
HCC-44	0.961	0.924	1.02	0.914	1.03	1.22	1	1.06	0.862	1.04	0.977	0.985	0.955	1.04	0.829	0.565	0.796	–	1.02	1.06
NCI-H1355	0.748	0.694	0.689	0.545	0.436	0.465	0.402	0.934	0.791	0.867	0.917	1.15	0.768	0.643	0.738	0.689	0.58	0.43	1.02	0.987
PC-3 [JPC-3]	0.807	1.15	1.16	1.14	0.72	0.762	0.715	0.45	0.33	0.579	0.699	0.935	0.756	0.625	0.699	0.814	0.71	0.502	0.46	0.529
UMC-11	0.367	0.47	0.362	0.257	0.699	0.653	0.259	1.03	0.244	0.381	0.295	0.303	0.13	1.02	0.983	–	0.422	0.794	0.944	1.04
NCI-H1395	0.435	0.492	0.407	0.414	0.972	1.07	0.638	1.29	0.572	1.28	1.13	1.06	0.825	0.595	0.815	0.604	0.649	1.1	0.818	1.04
SK-LU-1	0.466	0.455	0.432	0.518	0.505	0.567	0.461	1.25	0.651	0.894	0.939	0.981	0.635	0.242	0.211	0.197	0.191	0.447	1.06	1.08
NCI-H2405	0.913	–	0.691	–	0.658	0.652	0.611	1.05	0.705	0.795	0.95	0.671	0.871	0.673	0.67	0.58	0.712	0.649	0.962	0.793
NCI-H1915	0.248	0.275	0.212	0.212	0.298	0.336	0.264	1.05	0.688	0.767	0.765	0.773	0.623	0.968	0.835	0.678	0.482	0.261	0.968	0.897
NCI-H1651	0.189	0.158	0.173	0.167	0.785	0.907	–	0.973	0.392	1.17	1.05	1.18	1.07	0.818	0.918	1	0.909	0.884	0.806	–
NCI-H1703	0.492	0.391	0.476	0.45	–	–	–	1.4	0.301	1.35	1.14	1.26	0.366	–	–	–	–	–	0.918	1.11
HCC-827	0.684	0.577	0.723	0.624	0.481	0.663	0.512	0.222	0.192	0.973	1.09	1.03	0.925	0.281	0.854	0.714	0.766	0.493	0.18	0.215
